According to the NIST ThermoML archive (doi:10.1021/je100170v):

Tests used:
[1] = Liquid; for mass density / speed of sound: 101 kPa; for speed of sound: Sing-around technique in a fixed-path interferometer; for viscosity: 101.3 kPa
[2] = xn = mol fraction of the nth substance listed; conditions: 101 kPa, Liquid; for speed of sound: Sing-around technique in a fixed-path interferometer

CCCCCCCCO [octan-1-ol]
[1]
Conditions	mass density [kg/m3]	speed of sound [m/s]	viscosity [mPa·s]
298.15 K	821.5	1349.2	7.365
308.15 K	814	–	5.251
318.15 K	807.7	–	3.865

COCCO [2-methoxyethan-1-ol] + CCCCCCCCO
[2]
Conditions	mass density, 298.15 K [kg/m3]	mass density, 308.15 K [kg/m3]	mass density, 318.15 K [kg/m3]	speed of sound, 298.15 K [m/s]	viscosity, 298.15 K [mPa·s]	viscosity, 308.15 K [mPa·s]	viscosity, 318.15 K [mPa·s]
x2 = 0	959.5	952.1	945.8	1339.3	1.543	1.256	1.047
x2 = 0.061	943	935.6	929.5	1334.3	1.677	1.368	1.141
x2 = 0.1275	927.1	920	913.8	1329.3	1.822	1.454	1.209
x2 = 0.2003	912.1	904.9	898.8	1323	1.983	1.582	1.304
x2 = 0.2804	897.4	890.5	884.4	1318	2.145	1.749	1.426
x2 = 0.3688	883.4	876.4	870.5	1314.6	2.408	1.948	1.571
x2 = 0.4671	869.9	862.9	857	1315.4	2.774	2.19	1.781
x2 = 0.5769	857	850	844	1320	3.432	2.67	2.062
x2 = 0.7004	844.6	837.6	831.5	1326.5	4.238	3.19	2.466
x2 = 0.8402	832.8	825.6	819.4	1335.8	5.412	4.012	3.064

CCCCCCCCO [octan-1-ol] + CC(=O)N(C)C
[2], x1 = 1
Conditions	mass density [kg/m3]	speed of sound [m/s]	viscosity [mPa·s]
298.15 K	821.5	1349.2	7.365
308.15 K	814	–	5.251
318.15 K	807.7	–	3.865

CC(=O)N(C)C [N,N-dimethylethanamide]
[1]
Conditions	mass density [kg/m3]	speed of sound [m/s]	viscosity [mPa·s]
298.15 K	937.2	1458.2	0.937
308.15 K	925.8	–	0.841
318.15 K	917.1	–	0.763

CCCCCCCCO [octan-1-ol] + CC(=O)c1ccccc1
[2], x1 = 1
Conditions	mass density [kg/m3]	speed of sound [m/s]	viscosity [mPa·s]
298.15 K	821.5	1349.2	7.365
308.15 K	814	–	5.251
318.15 K	807.7	–	3.865

CC(=O)c1ccccc1 [acetophenone]
[1]
Conditions	mass density [kg/m3]	speed of sound [m/s]	viscosity [mPa·s]
298.15 K	1023.1	1296.2	1.653
308.15 K	1014.9	–	1.411
318.15 K	1007.2	–	1.115

COCCO [2-methoxyethan-1-ol]
[1]
Conditions	mass density [kg/m3]	speed of sound [m/s]	viscosity [mPa·s]
298.15 K	959.5	1339.3	1.543
308.15 K	952.1	–	1.256
318.15 K	945.8	–	1.047

CC(=O)N(C)C [N,N-dimethylethanamide] + CCCCCCCCO
[2]
Conditions	mass density, 298.15 K [kg/m3]	mass density, 308.15 K [kg/m3]	mass density, 318.15 K [kg/m3]	speed of sound, 298.15 K [m/s]	viscosity, 298.15 K [mPa·s]	viscosity, 308.15 K [mPa·s]	viscosity, 318.15 K [mPa·s]
x2 = 0	937.2	925.8	917.1	1458.2	0.937	0.841	0.763
x2 = 0.0692	923.5	912.7	904.4	1433.5	1.072	0.942	0.851
x2 = 0.1433	910.4	900.2	892.2	1412.4	1.246	1.063	0.947
x2 = 0.2228	897.7	888.1	880.4	1390.3	1.418	1.194	1.046
x2 = 0.3084	885.5	876.3	868.9	1372.5	1.702	1.376	1.185
x2 = 0.4008	873.7	864.8	857.8	1360	2.023	1.614	1.361
x2 = 0.5009	862.3	853.9	847	1353.4	2.399	1.893	1.585
x2 = 0.6095	851.4	843.4	836.7	1348.5	3.111	2.406	1.935
x2 = 0.728	840.9	833.1	826.6	1346.4	4.009	2.988	2.35
x2 = 0.8576	830.9	823.4	816.9	1348	5.318	3.849	2.965

CCCCCCCCO [octan-1-ol] + COCCO
[2], x1 = 1
Conditions	mass density [kg/m3]	speed of sound [m/s]	viscosity [mPa·s]
298.15 K	821.5	1349.2	7.365
308.15 K	814	–	5.251
318.15 K	807.7	–	3.865

CC(=O)c1ccccc1 [acetophenone] + CCCCCCCCO
[2]
Conditions	mass density, 298.15 K [kg/m3]	mass density, 308.15 K [kg/m3]	mass density, 318.15 K [kg/m3]	speed of sound, 298.15 K [m/s]	viscosity, 298.15 K [mPa·s]	viscosity, 308.15 K [mPa·s]	viscosity, 318.15 K [mPa·s]
x2 = 0	1023.1	1014.9	1007.2	1296.2	1.653	1.411	1.115
x2 = 0.093	997.7	989.7	982.4	1278.5	1.713	1.528	1.208
x2 = 0.1874	973.7	966.1	958.9	1266.5	1.831	1.669	1.327
x2 = 0.2834	951.2	943.6	936.6	1263.3	1.994	1.785	1.424
x2 = 0.3808	929.7	922.2	915.5	1264.7	2.205	1.949	1.535
x2 = 0.4799	909.3	902	895.3	1271.8	2.519	2.167	1.671
x2 = 0.5805	889.8	882.5	876	1281.8	2.997	2.4	1.807
x2 = 0.6828	871.3	864.1	857.7	1295.4	3.65	2.799	2.095
x2 = 0.7868	853.8	846.6	840.2	1311.1	4.475	3.249	2.432
x2 = 0.8925	837.1	829.9	823.6	1327.8	5.625	3.931	2.926
